According to BindingDB's records for doi:10.1016/j.bmcl.2009.10.049 (Wyeth Research, 2009):

Target: 3-phosphoinositide-dependent protein kinase 1 (Homo sapiens) (UniProt O15530)
Assay: Inhibition of PDK1

- IC50: > 2 µM
Compound: CN(C)Cc1ccc(-c2cnn3c(-c4cccc(NC(=O)c5cccc(C(F)(F)F)c5)c4)ccnc23)cc1 [N-[3-(3-{4-[(dimethylamino)methyl]phenyl}pyrazolo[1,5-a]pyrimidin-7-yl)phenyl]-3-(trifluoromethyl)benzamide]
